According to US9334256B2, “Agents and methods for treating ischemic and other diseases” (NoNO INC., priority 2011, dated 2016):

Each compound was assayed against T1, TRPM7 (Mus musculus, UniProt Q923J1) (assay: PI uptake cell death assay in TRPM7-expressing HEK-293 cells (type of assay from Example 1)). Details: 5 μM; Table X; the lower the number, the more potent in protecting against cell death.
T1 construct: expressed in transfected cells; host or cells: HEK-293 tSA (HEK-293T) cells, transient transfection with Lipofectamine 2000
T1 sequence (Q923J1 whole entry): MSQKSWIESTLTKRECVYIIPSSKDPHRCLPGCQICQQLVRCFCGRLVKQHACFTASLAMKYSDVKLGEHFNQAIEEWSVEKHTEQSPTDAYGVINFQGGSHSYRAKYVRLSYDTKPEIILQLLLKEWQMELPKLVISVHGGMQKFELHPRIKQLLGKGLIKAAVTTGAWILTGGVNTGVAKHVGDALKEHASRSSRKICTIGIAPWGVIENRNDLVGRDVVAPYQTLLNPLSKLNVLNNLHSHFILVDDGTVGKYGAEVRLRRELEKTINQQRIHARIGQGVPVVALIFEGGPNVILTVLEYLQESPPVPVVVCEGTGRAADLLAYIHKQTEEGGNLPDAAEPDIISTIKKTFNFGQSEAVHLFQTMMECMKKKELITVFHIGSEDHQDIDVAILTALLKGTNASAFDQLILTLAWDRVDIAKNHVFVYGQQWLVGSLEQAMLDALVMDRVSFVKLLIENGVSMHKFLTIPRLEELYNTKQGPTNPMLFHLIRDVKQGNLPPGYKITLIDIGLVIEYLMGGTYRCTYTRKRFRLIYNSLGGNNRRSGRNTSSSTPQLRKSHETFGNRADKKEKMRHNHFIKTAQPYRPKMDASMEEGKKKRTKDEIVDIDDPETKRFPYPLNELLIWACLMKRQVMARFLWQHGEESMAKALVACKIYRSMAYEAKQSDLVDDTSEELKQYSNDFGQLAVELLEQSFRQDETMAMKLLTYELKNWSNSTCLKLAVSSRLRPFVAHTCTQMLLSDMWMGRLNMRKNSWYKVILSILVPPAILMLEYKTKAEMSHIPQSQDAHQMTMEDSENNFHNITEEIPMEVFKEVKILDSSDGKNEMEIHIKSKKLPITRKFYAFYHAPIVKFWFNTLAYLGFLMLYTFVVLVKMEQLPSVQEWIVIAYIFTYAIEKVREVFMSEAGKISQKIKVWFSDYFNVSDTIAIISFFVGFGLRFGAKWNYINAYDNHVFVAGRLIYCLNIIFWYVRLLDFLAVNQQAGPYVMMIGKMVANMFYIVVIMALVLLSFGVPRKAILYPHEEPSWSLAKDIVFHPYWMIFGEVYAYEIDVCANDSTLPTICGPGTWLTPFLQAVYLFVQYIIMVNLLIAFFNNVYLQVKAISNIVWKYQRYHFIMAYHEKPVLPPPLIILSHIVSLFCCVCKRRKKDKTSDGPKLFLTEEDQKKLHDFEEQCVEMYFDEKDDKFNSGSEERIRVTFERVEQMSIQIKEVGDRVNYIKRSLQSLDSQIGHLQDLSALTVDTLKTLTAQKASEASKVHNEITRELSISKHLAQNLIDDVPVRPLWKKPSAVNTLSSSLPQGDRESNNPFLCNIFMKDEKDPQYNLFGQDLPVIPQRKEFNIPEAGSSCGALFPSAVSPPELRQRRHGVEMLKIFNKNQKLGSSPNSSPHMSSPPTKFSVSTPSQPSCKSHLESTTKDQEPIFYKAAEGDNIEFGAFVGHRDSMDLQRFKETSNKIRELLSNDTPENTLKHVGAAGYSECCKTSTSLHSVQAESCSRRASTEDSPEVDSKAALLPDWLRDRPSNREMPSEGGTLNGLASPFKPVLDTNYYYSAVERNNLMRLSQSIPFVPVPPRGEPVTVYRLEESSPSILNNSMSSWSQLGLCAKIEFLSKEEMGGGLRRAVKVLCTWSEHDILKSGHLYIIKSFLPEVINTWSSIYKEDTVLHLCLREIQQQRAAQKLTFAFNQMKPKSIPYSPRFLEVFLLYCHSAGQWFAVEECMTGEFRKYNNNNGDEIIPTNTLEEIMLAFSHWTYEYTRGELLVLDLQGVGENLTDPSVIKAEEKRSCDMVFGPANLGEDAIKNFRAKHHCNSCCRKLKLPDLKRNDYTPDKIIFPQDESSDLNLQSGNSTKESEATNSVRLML
Type: cell-based, murine
Source text: The TRPM7 channel provides a pathway for mono- and divalent cations into the cell, and is unique in that it contains a functional C-terminal α-kinase domain. […] The induction of chemical anoxia in host cells such as recombinant HEK293 cells can be used to activate TRPM7. This activation is detectable with the use measurements of cellular calcium accumulation. This is achievable with the use of a fluorescent calcium indicator. Alternatively, this activation can also be measured using radiolabelled Ca2+ (^45Ca^2+) as described previously by Sattler et al. (Sattler et al., 1998) and Aarts et al. (Aarts et al., 2003).
Hoechst 33342 was purchased as a 10 mg/mL solution in water (Molecular Probes Inc., Eugene, Oreg.). Propidium iodide (PI) was purchased as a powder and prepared by dissolving in PBS at 1 mg/mL. PI solutions were stored at 4° C. until use. Hoechst and PI were added directly to cell culture to 5 μg/mL and 10 μg/mL respectively. Cells were incubated at room temperature or at 37° C. for 10 minutes to allow for adequate uptake, and fluorescence observed using a NIKON Eclipse TE2000 inverted microscope and TE-FM Epi-Fluorescence attachment (Nikon Canada).
Untransfected cells or cells transfected with the TRPM7/pTracer or ΔPDZ/pTracer construct were plated onto 24-well plates, 24-hours post-transfection. Untransfected cells were plated at 0.75×10^6 cells/well and transfected cells at 1×10^6 cells/well. The plates were coated with poly-D-lysine to strengthen cell adhesion and to minimize cell loss during washes. Cells were loaded by incubation with 5 μM fluo-3 AM and 0.02% pluronic in HBSS at 37° C. for 30 minutes. Following loading, cells were washed with an aglycaemic HBSS containing, in mM: 20 N-methyl-D-glucamine (NMDG), 121 NaCl, 5 KCl, 10 HEPES acid, 10 HEPES-Na salt, 3 NaHCO3, 1 Na-pyruvate, and 1.8 CaCl2, pH adjusted to 7.4 with HCl. Calcium uptake, as assessed by fluo-3 fluorescence, was measured in response to 0, 5, 10, 15, 20, or 25 mM sodium cyanide (NaCN; Mallinckrodt Baker Inc., Phillipsburg, N.J.) dissolved in aglycaemic HBSS. A 250 mM NaCN stock was prepared in water and stored at room temperature for up to 2 weeks. Measurements of fluo-3 fluorescence were taken over a 2 hour period at 10 minutes intervals at room temperature (22-25° C.). Calcium uptake assays were performed 48 hours post-transfection.
Cell death, as assessed by PI uptake, was examined at the end of the 2 hour calcium uptake assay. Cells were stained with 10 μg/mL PI and PI fluorescence measured using the Fluoroskan microplate reader (λ excitation=590 nm, λ emission=630 nm) and accompanying Ascent software (Thermo Electron Corp.). To obtain a reading of maximal fluorescence (Fmax), 0.5% Triton X-100 was added to each well and allowed to incubate for 20 minutes. Cell death assays were performed 48 hours post-transfection.
Data was entered into Excel (Microsoft, Seattle, Wash.) or SigmaPlot (SPSS Inc., Chicago, Ill.) for analysis. Pooled data are presented as the mean of at least 3 separate experiments±sem. Calcium uptake is expressed as a fraction of baseline uptake: ΔFt=(Ft−Fo)/Fo where Ft is the fluorescence at time t, and Fo is the fluorescence at baseline. Cell death is expressed as a percentage of total cell death: cell death (%)=Ft/Fmax×100 where Ft is the fluorescence at time t and Fmax is the maximal fluorescence obtained by permeabilization with Triton X-100. Concentration-response curves were fit by nonlinear regression with a 4 parameter logistic curve represented by the following equation: y=min+{(max−min)/[1+(x/EC50)n]} where y is the response at concentration x, min is the minimal response, max is the maximal response, EC50 is the concentration required for half-maximal response, and n is the Hill slope. Statistical analysis of data was carried out with a two-tailed Student's t test, or a one-way analysis of variance (ANOVA) followed by post hoc pairwise multiple comparisons testing using the Holm-Sidak method, where appropriate. […]

Point of comparison: COc1ccc2c(Cl)c(C3NCCc4cc(OC)c(OC)cc43)sc2c1 (stereo not drawn) [Compound 71], “Normalized ratio of PI uptake (5 μM)” value 0.005. Against it:
- Cc1ccc2c(c1)CCCN2C(=O)c1sc2ccccc2c1Cl [Compound 2] — higher, 0.179
- Cc1ccc2c(c1)CCCN2C(=O)c1sc2cc(F)ccc2c1Cl [Compound 7] — higher, 0.274
- Fc1ccc2c(c1)CCN=C2c1sc2ccccc2c1Cl [Compound 42] — higher, 0.304
- Fc1ccc2c(c1)CCNC2c1sc2ccccc2c1Cl (stereo not drawn) [Compound 43] — higher, 0.060
- CN1CCc2cc(F)ccc2C1c1sc2ccccc2c1Cl (stereo not drawn) [Compound 44] — higher, 0.336
- Cc1ccc2c(c1)CCCN2C(=O)c1sc2ccccc2c1F [Compound 45] — higher, 0.399
- Cc1ccc2c(c1)CCCN2C(=O)c1sc2cc(C(F)(F)F)ccc2c1Cl [Compound 46] — higher, 0.149
- COc1ccc(C)c(N(Cc2ccccn2)C(=O)c2sc3ccccc3c2Cl)c1 [Compound 52] — higher, 0.079
- Cc1ccc2c(c1)CCNC2c1sc2ccccc2c1Cl (stereo not drawn) [Compound 54] — higher, 0.024
- Cc1ccc2c(c1)CCN(C)C2c1sc2ccccc2c1Cl (stereo not drawn) [Compound 55] — higher, 0.147
- COc1cc(OC)c2c(C)c(Cc3ccccc3)c(=O)[nH]c2c1 [Compound 56] — higher, 0.255
- Cc1ccc(N(Cc2ccccn2)C(=O)c2sc3ccccc3c2Cl)c(C)c1 [Compound 57] — higher, 0.110
- O=S(=O)(Nc1sc2ccccc2c1Cl)c1ccc(F)cc1 [Compound 64] — higher, 0.154
- COc1ccc2c(Cl)c(C3=NCCc4cc(OC)c(OC)cc43)sc2c1 [Compound 67] — higher, 0.054
- COc1ccc2sc(C3=NCCc4cc(OC)c(OC)cc43)c(Cl)c2c1 [Compound 70] — higher, 0.035
- COc1cc2c(cc1OC)C(c1sc3cc(C(F)(F)F)ccc3c1Cl)NCC2 (stereo not drawn) [Compound 72] — lower, 0.000
- COc1cc2c(cc1OC)C(c1sc3cccc(C)c3c1Cl)NCC2 (stereo not drawn) [Compound 73] — lower, 0.000
- Cc1c(Cc2cccc(Cl)c2)c(=O)oc2cc(O)cc(O)c12 [Compound 77] — higher, 0.071

Same assay, conditions: 10 μM; Table X; the lower the number, the more potent

Point of comparison: Fc1ccc2c(c1)CCN=C2c1sc2ccccc2c1Cl [Compound 42], “Normalized ratio of PI uptake (10 μM)” value 0.010. Against it:
- Cc1ccc2c(c1)CCCN2C(=O)c1sc2ccccc2c1Cl [Compound 2] — higher, 0.018
- Cc1ccc2c(c1)CCCN2C(=O)c1sc2cc(F)ccc2c1Cl [Compound 7] — higher, 0.067
- Fc1ccc2c(c1)CCNC2c1sc2ccccc2c1Cl (stereo not drawn) [Compound 43] — higher, 0.020
- CN1CCc2cc(F)ccc2C1c1sc2ccccc2c1Cl (stereo not drawn) [Compound 44] — higher, 0.070
- Cc1ccc2c(c1)CCCN2C(=O)c1sc2ccccc2c1F [Compound 45] — higher, 0.072
- Cc1ccc2c(c1)CCCN2C(=O)c1sc2cc(C(F)(F)F)ccc2c1Cl [Compound 46] — higher, 0.137
- COc1ccc(C)c(N(Cc2ccccn2)C(=O)c2sc3ccccc3c2Cl)c1 [Compound 52] — higher, 0.022
- Cc1ccc2c(c1)CCNC2c1sc2ccccc2c1Cl (stereo not drawn) [Compound 54] — higher, 0.029
- Cc1ccc2c(c1)CCN(C)C2c1sc2ccccc2c1Cl (stereo not drawn) [Compound 55] — higher, 0.059
- COc1cc(OC)c2c(C)c(Cc3ccccc3)c(=O)[nH]c2c1 [Compound 56] — higher, 0.240
- Cc1ccc(N(Cc2ccccn2)C(=O)c2sc3ccccc3c2Cl)c(C)c1 [Compound 57] — higher, 0.039
- O=S(=O)(Nc1sc2ccccc2c1Cl)c1ccc(F)cc1 [Compound 64] — higher, 0.080
- COc1ccc2c(Cl)c(C3=NCCc4cc(OC)c(OC)cc43)sc2c1 [Compound 67] — higher, 0.019
- COc1ccc2sc(C3=NCCc4cc(OC)c(OC)cc43)c(Cl)c2c1 [Compound 70] — higher, 0.013
- COc1ccc2c(Cl)c(C3NCCc4cc(OC)c(OC)cc43)sc2c1 (stereo not drawn) [Compound 71] — lower, 0.003
- COc1cc2c(cc1OC)C(c1sc3cc(C(F)(F)F)ccc3c1Cl)NCC2 (stereo not drawn) [Compound 72] — lower, 0.000
- COc1cc2c(cc1OC)C(c1sc3cccc(C)c3c1Cl)NCC2 (stereo not drawn) [Compound 73] — lower, 0.000
- Cc1c(Cc2cccc(Cl)c2)c(=O)oc2cc(O)cc(O)c12 [Compound 77] — lower, 0.003

Same assay, conditions: Table X

Point of comparison: Cc1ccc2c(c1)CCCN2C(=O)c1sc2cc(F)ccc2c1Cl [Compound 7], IC50 4.05 µM. Against it:
- Cc1ccc2c(c1)CCCN2C(=O)c1sc2ccccc2c1Cl [Compound 2] — within 1.5-fold, 3.27 µM
- Fc1ccc2c(c1)CCN=C2c1sc2ccccc2c1Cl [Compound 42] — within 1.5-fold, 3.99 µM
- Fc1ccc2c(c1)CCNC2c1sc2ccccc2c1Cl (stereo not drawn) [Compound 43] — 1.6-fold lower, 2.54 µM
- CN1CCc2cc(F)ccc2C1c1sc2ccccc2c1Cl (stereo not drawn) [Compound 44] — within 1.5-fold, 4.25 µM
- Cc1ccc2c(c1)CCCN2C(=O)c1sc2ccccc2c1F [Compound 45] — within 1.5-fold, 4.66 µM
- Cc1ccc2c(c1)CCCN2C(=O)c1sc2cc(C(F)(F)F)ccc2c1Cl [Compound 46] — 2.2-fold lower, 1.88 µM
- COc1ccc(C)c(N(Cc2ccccn2)C(=O)c2sc3ccccc3c2Cl)c1 [Compound 52] — 3.1-fold lower, 1.29 µM
- Cc1ccc2c(c1)CCNC2c1sc2ccccc2c1Cl (stereo not drawn) [Compound 54] — 2.7-fold lower, 1.5 µM
- Cc1ccc2c(c1)CCN(C)C2c1sc2ccccc2c1Cl (stereo not drawn) [Compound 55] — 1.9-fold lower, 2.14 µM
- COc1cc(OC)c2c(C)c(Cc3ccccc3)c(=O)[nH]c2c1 [Compound 56] — 9.4-fold lower, 0.43 µM
- Cc1ccc(N(Cc2ccccn2)C(=O)c2sc3ccccc3c2Cl)c(C)c1 [Compound 57] — 2.4-fold lower, 1.71 µM
- O=S(=O)(Nc1sc2ccccc2c1Cl)c1ccc(F)cc1 [Compound 64] — within 1.5-fold, 2.87 µM
- COc1ccc2c(Cl)c(C3=NCCc4cc(OC)c(OC)cc43)sc2c1 [Compound 67] — 11-fold lower, 0.37 µM
- COc1ccc2sc(C3=NCCc4cc(OC)c(OC)cc43)c(Cl)c2c1 [Compound 70] — 8.6-fold lower, 0.47 µM
- COc1ccc2c(Cl)c(C3NCCc4cc(OC)c(OC)cc43)sc2c1 (stereo not drawn) [Compound 71] — 9.6-fold lower, 0.42 µM
- COc1cc2c(cc1OC)C(c1sc3cc(C(F)(F)F)ccc3c1Cl)NCC2 (stereo not drawn) [Compound 72] — 10-fold lower, 0.39 µM
- COc1cc2c(cc1OC)C(c1sc3cccc(C)c3c1Cl)NCC2 (stereo not drawn) [Compound 73] — 22-fold lower, 0.18 µM
- Cc1c(Cc2cccc(Cl)c2)c(=O)oc2cc(O)cc(O)c12 [Compound 77] — 2-fold lower, 1.99 µM
